In publication PMC10141580, “Cyclic Dichalcogenides Extend the Reach of Bioreductive Prodrugs to Harness Thiol/Disulfide Oxidoreductases: Applications to seco-Duocarmycins Targeting the Thioredoxin System” (ACS Central Science, 2023):
Where two headings read alike, the source gives them in different places.

Tested on: panel of 140 standard cancer cell lines
Experiment: ProliFiler-140 cancer cell line screen (CellTiterGlo, 72 h)
Assay type: cell-based
Conditions: Homo sapiens
Method: Incubations were performed for 72 h before automated viability readout with CellTiterGlo (Figure 8).
End of Figure S11 (part 5 of 5): ProliFiler-140 cancer cell line screening for cytotoxicity of the prodrugs.
8-data-point dose response curves from CellTiter-Glo® viability readout.
ProliFiler-140 cell line panel part V

`COc1cccc2c1C(=O)c1c(O)c3c(c(O)c1C2=O)C[C@@](O)(C(=O)CO)C[C@@H]3O[C@H]1C[C@H](N)[C@H](O)[C@H](C)O1` [doxorubicin, reference compound] was tested, and the IC50 (DV-90, DV90 (Lung), read-out: IC50 [M] (ProliFiler-140)) was 1.9e-08 M, the IC50 (Detroit 562, Detroit562 (Head/Neck), read-out: IC50 [M] (ProliFiler-140)) was 1.54e-07 M and the IC50 (EFM-19, EFM-19 (Breast), read-out: IC50 [M] (ProliFiler-140)) was 4.7e-07 M. For the same molecule, the IC50 (EFO-27, EFO-27 (Ovary), read-out: IC50 [M] (ProliFiler-140)) was 2.9e-07 M, the IC50 (EPLC-272H, EPLC-272H (Lung), read-out: IC50 [M] (ProliFiler-140)) was 1.97e-07 M and the IC50 (HCC38, HCC38 (Breast), read-out: IC50 [M] (ProliFiler-140)) was 5.21e-08 M. It also gave an IC50 (HCC827, HCC827 (Lung), read-out: IC50 [M] (ProliFiler-140)) of 3.5e-07 M, an IC50 (HCC1569, HCC 1569 (Breast), read-out: IC50 [M] (ProliFiler-140)) of 7e-07 M and an IC50 (HCT-15, HCT-15 (Colon), read-out: IC50 [M] (ProliFiler-140)) of 6.43e-07 M. For the same molecule, the IC50 (HCT-116, HCT116 (Colon), read-out: IC50 [M] (ProliFiler-140)) was 1.07e-07 M, the IC50 (HCT-116, HCT116, read-out: IC50) was 1.1e-07 M and the IC50 (HEC-1-A, HEC-1-A (Endometrium), read-out: IC50 [M] (ProliFiler-140)) was 3.3e-07 M. For the same molecule, the IC50 (HEC-1B, HEC-1-B (Endometrium), read-out: IC50 [M] (ProliFiler-140)) was 2.4e-06 M, the IC50 (HL-60, HL-60 (Blood), read-out: IC50 [M] (ProliFiler-140)) was 2.6e-08 M and the IC50 (HL-60, HL-60, read-out: IC50) was 2.6e-08 M. The IC50 (HT-29, HT-29 (Colon), read-out: IC50 [M] (ProliFiler-140)) was 3.7e-07 M, the IC50 (HT-29, HT-29, read-out: IC50) was 3.7e-07 M and the IC50 (HT-1080, HT-1080 (Fibrosarcoma), read-out: IC50 [M] (ProliFiler-140)) was 7.6e-08 M. It also gave an IC50 (HeLa, HeLa (Cervix), read-out: IC50 [M] (ProliFiler-140)) of 8.04e-08 M, an IC50 (Hs746T, Hs 746T (Stomach), read-out: IC50 [M] (ProliFiler-140)) of 4e-07 M and an IC50 (HuTu80, Hutu 80 (Duodenum), read-out: IC50 [M] (ProliFiler-140)) of 1.87e-08 M. The IC50 (Huh-7, HuH7 (Liver), read-out: IC50 [M] (ProliFiler-140)) was 2.1e-07 M, the IC50 (Ishikawa, Ishikawa (Endometrium), read-out: IC50 [M] (ProliFiler-140)) was 7.7e-08 M and the IC50 (JIMT-1, JIMT-1 (Breast), read-out: IC50 [M] (ProliFiler-140)) was 1.3e-06 M. It also gave an IC50 (JVM-3, JVM-3 (Blood), read-out: IC50 [M] (ProliFiler-140)) of 3e-08 M, an IC50 (Jurkat, Jurkat (Blood), read-out: IC50 [M] (ProliFiler-140)) of 4.01e-08 M and an IC50 (K562, K562 (Blood), read-out: IC50 [M] (ProliFiler-140)) of 4.4e-07 M. It also gave an IC50 (KARPAS-299, KARPAS 299 (Blood), read-out: IC50 [M] (ProliFiler-140)) of 7.32e-08 M, an IC50 (KATO III, Kato III (Stomach), read-out: IC50 [M] (ProliFiler-140)) of 9e-07 M and an IC50 (KG-1a, KG-1 a (Blood), read-out: IC50 [M] (ProliFiler-140)) of 4.91e-07 M. It also gave an IC50 (KMS-12-BM, KMS-12-BM (Blood), read-out: IC50 [M] (ProliFiler-140)) of 1.65e-07 M, an IC50 (LN-229, LN229 (Brain), read-out: IC50 [M] (ProliFiler-140)) of 2.16e-07 M and an IC50 (LNCaP, LnCap (Prostate), read-out: IC50 [M] (ProliFiler-140)) of 1.9e-07 M. The IC50 (LoVo, LOVO (Colon), read-out: IC50 [M] (ProliFiler-140)) was 1.11e-07 M, the IC50 (MDA-MB-435, MDA MB 435 (Skin), read-out: IC50 [M] (ProliFiler-140)) was 4.8e-07 M and the IC50 (MDA-MB-468, MDA-MB-468 (Breast), read-out: IC50 [M] (ProliFiler-140)) was 4.7e-08 M. It also gave an IC50 (MEC1, MEC-1 (Blood), read-out: IC50 [M] (ProliFiler-140)) of 7.3e-08 M, an IC50 (MIA PaCa-2, Mia PaCA 2 (Pancreas), read-out: IC50 [M] (ProliFiler-140)) of 7.37e-08 M and an IC50 (MKN-1, MKN-1 (Stomach), read-out: IC50 [M] (ProliFiler-140)) of 5.2e-08 M. For the same molecule, the IC50 (MKN-45, MKN-45 (Stomach), read-out: IC50 [M] (ProliFiler-140)) was 3.16e-07 M, the IC50 (MOLM-13, MOLM-13 (Blood), read-out: IC50 [M] (ProliFiler-140)) was 2.1e-08 M and the IC50 (MOLT-4, MOLT-4 (Blood), read-out: IC50 [M] (ProliFiler-140)) was 2.6e-08 M. For the same molecule, the IC50 (MOLT-4, MOLT-4, read-out: IC50) was 2.6e-08 M, the IC50 (MV4-11, MV4-11 (Blood), read-out: IC50 [M] (ProliFiler-140)) was 4.3e-09 M and the IC50 (NALM-6, NALM-6 (Blood), read-out: IC50 [M] (ProliFiler-140)) was 2.3e-08 M. It also gave an IC50 (NCI-H82, NCI-H82 (Lung), read-out: IC50 [M] (ProliFiler-140)) of 6.2e-07 M, an IC50 (NCI-H292, NCI-H292 (Lung), read-out: IC50 [M] (ProliFiler-140)) of 7.2e-08 M and an IC50 (NCI-H441, NCI-H441 (Lung), read-out: IC50 [M] (ProliFiler-140)) of 3.49e-07 M. The IC50 (NCI-H460, H460 (Lung), read-out: IC50 [M] (ProliFiler-140)) was 2.6e-08 M, the IC50 (NCI-H838, NCI-H838 (Lung), read-out: IC50 [M] (ProliFiler-140)) was 1.5e-07 M and the IC50 (NCI-H1048, NCI-H1048 (Lung), read-out: IC50 [M] (ProliFiler-140)) was 3.2e-08 M. The IC50 (NCI-H1299, H1299 (Lung), read-out: IC50 [M] (ProliFiler-140)) was 2.23e-07 M, the IC50 (NCI-H1437, NCI-H1437 (Lung), read-out: IC50 [M] (ProliFiler-140)) was 1.39e-07 M and the IC50 (NCI-H1563, NCI-H1563 (Lung), read-out: IC50 [M] (ProliFiler-140)) was 5.4e-07 M. It also gave an IC50 (NCI-H1573, NCI-H1573 (Lung), read-out: IC50 [M] (ProliFiler-140)) of 3e-06 M, an IC50 (NCI-H1581, NCI-H1581 (Lung), read-out: IC50 [M] (ProliFiler-140)) of 1.47e-07 M and an IC50 (NCI-H1703, NCI-H1703 (Lung), read-out: IC50 [M] (ProliFiler-140)) of 9.2e-08 M. The IC50 (NCI-H1838, NCI-H1838 (Lung), read-out: IC50 [M] (ProliFiler-140)) was 2.5e-07 M.
